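All cell lines were grown in 96-well plates and treated with compound for 48 hours. Abbreviation: GI50, concentration required for 50% inhibition of growth. The concentration for full growth arrest is given as TGI.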
Legend:
Assay in all cases: NCI anticancer screen, dose series, 48 h
HCT-116 colon = system: HCT-116 colon
HOP-62 NSCLC = system: HOP-62 NSCLC
SK-MEL-28 melanoma = system: SK-MEL-28 melanoma
TK-10 renal = system: TK-10 renal
SK-MEL-2 melanoma = system: SK-MEL-2 melanoma
UO-31 renal = system: UO-31 renal
OVCAR-3 ovarian = system: OVCAR-3 ovarian
T-47D breast = system: T-47D breast
HOP-92 NSCLC = system: HOP-92 NSCLC
ACHN renal = system: ACHN renal
OVCAR-5 ovarian = system: OVCAR-5 ovarian
MCF7 breast = system: MCF7 breast
SNB-75 CNS = system: SNB-75 CNS
COLO 205 colon = system: COLO 205 colon
A549 NSCLC = system: A549 NSCLC
786-0 renal = system: 786-0 renal
SN12C renal = system: SN12C renal
PC-3 prostate = system: PC-3 prostate
LOX IMVI melanoma = system: LOX IMVI melanoma
MDA-MB-435 = system: MDA-MB-435
HCC-2998 colon = system: HCC-2998 colon
IGROV1 ovarian = system: IGROV1 ovarian
NCI-H460 lung = system: NCI-H460 lung
HT29 colon = system: HT29 colon
MDA-MB-231 breast = system: MDA-MB-231 breast
HCT-15 colon = system: HCT-15 colon
U251 CNS = system: U251 CNS
SK-MEL-5 melanoma = system: SK-MEL-5 melanoma
HL-60(TB) leukemia = system: HL-60(TB) leukemia
MOLT-4 leukemia = system: MOLT-4 leukemia
BT-549 breast = system: BT-549 breast
HS 578T breast = system: HS 578T breast
SF-539 CNS = system: SF-539 CNS
RXF 393 renal = system: RXF 393 renal
A498 renal = system: A498 renal
SR leukemia = system: SR leukemia
MDA-MB-468 breast = system: MDA-MB-468 breast
DU-145 prostate = system: DU-145 prostate
NCI-H23 lung = system: NCI-H23 lung
SNB-19 CNS = system: SNB-19 CNS
UACC-257 melanoma = system: UACC-257 melanoma
UACC-62 melanoma = system: UACC-62 melanoma
NCI-H522 lung = system: NCI-H522 lung
KM12 colon = system: KM12 colon
M14 melanoma = system: M14 melanoma
K-562 leukemia = system: K-562 leukemia
OVCAR-8 ovarian = system: OVCAR-8 ovarian
OVCAR-4 ovarian = system: OVCAR-4 ovarian
SF-268 CNS = system: SF-268 CNS
CCRF-CEM leukemia = system: CCRF-CEM leukemia
MALME-3M melanoma = system: MALME-3M melanoma
CAKI-1 renal = system: CAKI-1 renal
NCI-H226 lung = system: NCI-H226 lung
SW-620 colon = system: SW-620 colon
SK-OV-3 ovarian = system: SK-OV-3 ovarian
SF-295 CNS = system: SF-295 CNS
EKVX NSCLC = system: EKVX NSCLC

Compound O=C(/C=C/c1ccccc1)c1nc2ccccc2n1Cc1ccc(F)cc1 has a GI50 (HCT-116 colon) of 1.92 µM, a TGI (HCT-116 colon) of 3.84 µM and a GI50 (HOP-62 NSCLC) of 3.93 µM. It also gave a TGI (HOP-62 NSCLC) of 12.6 µM, a GI50 (SK-MEL-28 melanoma) of 2.18 µM and a TGI (SK-MEL-28 melanoma) of 5.25 µM. The GI50 (TK-10 renal) was 2.9 µM, the TGI (TK-10 renal) was 10.4 µM and the GI50 (SK-MEL-2 melanoma) was 5.11 µM. It also gave a TGI (SK-MEL-2 melanoma) of 17.1 µM, a GI50 (UO-31 renal) of 1.77 µM and a TGI (UO-31 renal) of 4.21 µM. It also gave a GI50 (OVCAR-3 ovarian) of 2 µM, a TGI (OVCAR-3 ovarian) of 4.14 µM and a GI50 (T-47D breast) of 2.71 µM. The TGI (T-47D breast) was 12.1 µM, the GI50 (HOP-92 NSCLC) was 4.03 µM and the TGI (HOP-92 NSCLC) was 20.4 µM. The GI50 (ACHN renal) was 3.66 µM, the TGI (ACHN renal) was 12.6 µM and the GI50 (OVCAR-5 ovarian) was 3.31 µM. The TGI (OVCAR-5 ovarian) was 11.6 µM, the GI50 (MCF7 breast) was 1.77 µM and the TGI (MCF7 breast) was 6.02 µM. The GI50 (SNB-75 CNS) was 1.72 µM, the TGI (SNB-75 CNS) was 10.9 µM and the GI50 (COLO 205 colon) was 3.18 µM. It also gave a TGI (COLO 205 colon) of 7.86 µM, a GI50 (A549 NSCLC) of 4.82 µM and a TGI (A549 NSCLC) of 21.1 µM. The GI50 (786-0 renal) was 1.82 µM, the TGI (786-0 renal) was 3.49 µM and the GI50 (SN12C renal) was 3.7 µM. It also gave a TGI (SN12C renal) of 13.8 µM, a GI50 (PC-3 prostate) of 4.13 µM and a TGI (PC-3 prostate) of 26.7 µM. The GI50 (LOX IMVI melanoma) was 1.62 µM, the TGI (LOX IMVI melanoma) was 3.1 µM and the GI50 (MDA-MB-435) was 2.23 µM. The TGI (MDA-MB-435) was 5.92 µM, the GI50 (HCC-2998 colon) was 1.83 µM and the TGI (HCC-2998 colon) was 3.91 µM. For the same compound, the GI50 (IGROV1 ovarian) was 2.33 µM, the TGI (IGROV1 ovarian) was 5.89 µM and the GI50 (NCI-H460 lung) was 2.14 µM. The TGI (NCI-H460 lung) was 5.38 µM, the GI50 (HT29 colon) was 3.26 µM and the TGI (HT29 colon) was 9.14 µM. The GI50 (MDA-MB-231 breast) was 1.98 µM, the TGI (MDA-MB-231 breast) was 4.17 µM and the GI50 (HCT-15 colon) was 1.75 µM. For the same compound, the TGI (HCT-15 colon) was 3.66 µM, the GI50 (U251 CNS) was 1.62 µM and the TGI (U251 CNS) was 3.19 µM. For the same compound, the GI50 (SK-MEL-5 melanoma) was 3.49 µM, the TGI (SK-MEL-5 melanoma) was 14.4 µM and the GI50 (HL-60(TB) leukemia) was 2.44 µM. It also gave a TGI (HL-60(TB) leukemia) of 12.4 µM, a GI50 (MOLT-4 leukemia) of 3.16 µM and a TGI (MOLT-4 leukemia) greater than 100 µM. The GI50 (BT-549 breast) was 2.54 µM, the TGI (BT-549 breast) was 7.59 µM and the GI50 (HS 578T breast) was 4.76 µM. It also gave a TGI (HS 578T breast) of 47.6 µM, a GI50 (SF-539 CNS) of 2.01 µM and a TGI (SF-539 CNS) of 4.18 µM. The GI50 (RXF 393 renal) was 1.56 µM, the TGI (RXF 393 renal) was 3 µM and the GI50 (A498 renal) was 18.5 µM. It also gave a TGI (A498 renal) of 33.1 µM, a GI50 (SR leukemia) of 2.99 µM and a TGI (SR leukemia) greater than 100 µM. The GI50 (MDA-MB-468 breast) was 1.92 µM, the TGI (MDA-MB-468 breast) was 3.73 µM and the GI50 (DU-145 prostate) was 3.67 µM. It also gave a TGI (DU-145 prostate) of 14.2 µM, a GI50 (NCI-H23 lung) of 2.66 µM and a TGI (NCI-H23 lung) of 8.6 µM. It also gave a GI50 (SNB-19 CNS) of 2.13 µM, a TGI (SNB-19 CNS) of 5.76 µM and a GI50 (UACC-257 melanoma) of 4.1 µM. For the same compound, the TGI (UACC-257 melanoma) was 17 µM, the GI50 (UACC-62 melanoma) was 2.42 µM and the TGI (UACC-62 melanoma) was 10.4 µM. It also gave a GI50 (NCI-H522 lung) of 2.42 µM, a TGI (NCI-H522 lung) of 5.85 µM and a GI50 (KM12 colon) of 2.18 µM. For the same compound, the TGI (KM12 colon) was 5.01 µM, the GI50 (M14 melanoma) was 3.17 µM and the TGI (M14 melanoma) was 11.4 µM. It also gave a GI50 (K-562 leukemia) of 3.1 µM, a TGI (K-562 leukemia) greater than 100 µM and a GI50 (OVCAR-8 ovarian) of 2.56 µM. The TGI (OVCAR-8 ovarian) was 6.88 µM, the GI50 (OVCAR-4 ovarian) was 11.1 µM and the TGI (OVCAR-4 ovarian) was 28.6 µM. The GI50 (SF-268 CNS) was 7.22 µM, the TGI (SF-268 CNS) was 30.2 µM and the GI50 (CCRF-CEM leukemia) was 4.43 µM. The TGI (CCRF-CEM leukemia) was greater than 100 µM, the GI50 (MALME-3M melanoma) was 3.52 µM and the TGI (MALME-3M melanoma) was 14.5 µM. It also gave a GI50 (CAKI-1 renal) of 2.97 µM, a TGI (CAKI-1 renal) of 12.5 µM and a GI50 (NCI-H226 lung) of 13.8 µM. For the same compound, the TGI (NCI-H226 lung) was 34.4 µM, the GI50 (SW-620 colon) was 2.15 µM and the TGI (SW-620 colon) was 4.45 µM. The GI50 (SK-OV-3 ovarian) was 18.9 µM, the TGI (SK-OV-3 ovarian) was 45.5 µM and the GI50 (SF-295 CNS) was 3.19 µM. The TGI (SF-295 CNS) was 10.8 µM, the GI50 (EKVX NSCLC) was 4.86 µM and the TGI (EKVX NSCLC) was 17 µM.

Source: PubChem BioAssay (NCI)
